Experimental data from US20080031982A1 (Metaproteomics, LLC, priority 2006, published 2008).

Key:
p70S6K = p70S6K (Homo sapiens, UniProt P23443); assay: KinaseProfiler Assay
MAPK1 = MAPK1 (Homo sapiens, UniProt P27361); assay: KinaseProfiler Assay
Pim-2 = Pim-2 (Homo sapiens, UniProt Q9P1W9); assay: KinaseProfiler Assay
TrkA = TrkA (Homo sapiens, UniProt P04629); assay: KinaseProfiler Assay
3T3-L1 adipocytes = assay: Lipogenesis in 3T3-L1 adipocytes (Oil Red O / BODIPY); format: cell-based, murine; conditions: relative to solvent and positive controls
Procedure: Prior to experiments, cells were cultured in DMEM containing 10% FBS-HI added 50 units penicillin/ml and 50 μg streptomycin/ml, and maintained in log phase prior to experimental setup. Cells were grown in a 5% CO2 humidified incubator at 37° C. Components of the pre-confluent medium included (1) 10% FBS/DMEM containing 4.5 g glucose/L; (2) 50 U/ml penicillin; and (3) 50 μg/ml streptomycin. Growth medium was made by adding 50 ml of heat inactivated FBS and 5 ml of penicillin/streptomycin to 500 ml DMEM. This medium was stored at 4° C. Before use, the medium was warmed to 37° C. in a water bath.
3T3-T1 cells were seeded at an initial density of 6×10^4 cells/cm^2 in 24-well plates. For two days, the cells were allowed grow to reach confluence. Following confluence, the cells were forced to differentiate into adipocytes by the addition of differentiation medium; this medium consisted of (1) 10% FBS/DMEM (high glucose); (2) 0.5 mM methylisobutylxanthine; (3) 0.5 μM dexamethasone and (4) 10 μg/ml insulin (MDI medium). After three days, the medium was changed to post-differentiation medium consisting of 10 μg/ml insulin in 10% FBS/DMEM.
Whenever fresh media were added, fresh test material was also added.
Oil Red 0 Staining—Triglyceride content of D6/D7-differentiated 3T3-L1 cells was estimated with Oil Red 0 according to the method of Kasturi and Joshi [Kasturi, R. and Joshi, V. C. […] Monolayer cells were washed with PBS (phosphate buffered saline, Mediatech) and fixed with 10% formaldehyde for ten minutes. Fixed cells were stained with an Oil Red 0 working solution of three parts 0.6% Oil Red O/isopropanol stock solution and two parts water for one hour and the excess stain was washed once with water. The resulting stained oil droplets were extracted from the cells with isopropanol and quantified by spectrophotometric analysis at 540 nm (MEL312e BIO-KINETICS READER, Bio-Tek Instruments, Winooski, Vt.).
Briefly, media were removed and cells were washed once with non-sterile PBS. A stock 1000× BODIPY/DMSO solution was made by dissolving 1 mg BODIPY in 1 ml DMSO (1,000 μg BODIPY/ml). […] One-hundred μl of this working solution (1 μg BODIPY) was added to each well of a 96-well microtiter plate. After 15 min on an orbital shaker (DS-500, VWR Scientific Products, South Plainfield, N.J.) at ambient temperature, the cells were washed with 100 μl PBS followed by the addition of 100 μl PBS for reading for spectrofluorometric determination of BODIPY incorporation into the cells.
Nonpolar lipid incorporation was represented relative to the nonpolar lipid accumulation of fully differentiated cells in the solvent controls.

PKCα = PKCα (Homo sapiens, UniProt P17252); assay: KinaseProfiler Assay
cKit(D816H) = cKit(D816H) (Homo sapiens, UniProt P10721, D816H); assay: KinaseProfiler Assay
HIPK2 = HIPK2 (Homo sapiens, UniProt Q9H2X6); assay: KinaseProfiler Assay
CDK5/p25 = CDK5/p25 (Homo sapiens, UniProt Q00535); assay: KinaseProfiler Assay
GSK3β = GSK3β (Homo sapiens, UniProt P49841); assay: KinaseProfiler Assay
GSK3β, sequence (P49841 whole entry): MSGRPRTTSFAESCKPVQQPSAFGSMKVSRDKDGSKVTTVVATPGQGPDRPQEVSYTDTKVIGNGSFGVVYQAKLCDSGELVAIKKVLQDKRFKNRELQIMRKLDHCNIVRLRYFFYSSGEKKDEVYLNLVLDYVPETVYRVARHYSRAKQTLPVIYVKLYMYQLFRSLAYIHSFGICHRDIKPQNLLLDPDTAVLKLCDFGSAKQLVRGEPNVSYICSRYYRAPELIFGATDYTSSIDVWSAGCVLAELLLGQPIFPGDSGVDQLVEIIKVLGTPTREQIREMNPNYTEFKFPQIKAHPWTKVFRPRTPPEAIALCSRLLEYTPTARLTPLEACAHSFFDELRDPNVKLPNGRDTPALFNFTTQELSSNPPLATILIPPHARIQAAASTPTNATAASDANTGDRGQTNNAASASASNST

MSSK1 = MSSK1 (Homo sapiens, UniProt Q9UPE1); assay: KinaseProfiler Assay
PKCβII = PKCβII (Homo sapiens, UniProt P05771); assay: KinaseProfiler Assay
PKCβII, sequence (P05771 1-673 isoform P05771-2): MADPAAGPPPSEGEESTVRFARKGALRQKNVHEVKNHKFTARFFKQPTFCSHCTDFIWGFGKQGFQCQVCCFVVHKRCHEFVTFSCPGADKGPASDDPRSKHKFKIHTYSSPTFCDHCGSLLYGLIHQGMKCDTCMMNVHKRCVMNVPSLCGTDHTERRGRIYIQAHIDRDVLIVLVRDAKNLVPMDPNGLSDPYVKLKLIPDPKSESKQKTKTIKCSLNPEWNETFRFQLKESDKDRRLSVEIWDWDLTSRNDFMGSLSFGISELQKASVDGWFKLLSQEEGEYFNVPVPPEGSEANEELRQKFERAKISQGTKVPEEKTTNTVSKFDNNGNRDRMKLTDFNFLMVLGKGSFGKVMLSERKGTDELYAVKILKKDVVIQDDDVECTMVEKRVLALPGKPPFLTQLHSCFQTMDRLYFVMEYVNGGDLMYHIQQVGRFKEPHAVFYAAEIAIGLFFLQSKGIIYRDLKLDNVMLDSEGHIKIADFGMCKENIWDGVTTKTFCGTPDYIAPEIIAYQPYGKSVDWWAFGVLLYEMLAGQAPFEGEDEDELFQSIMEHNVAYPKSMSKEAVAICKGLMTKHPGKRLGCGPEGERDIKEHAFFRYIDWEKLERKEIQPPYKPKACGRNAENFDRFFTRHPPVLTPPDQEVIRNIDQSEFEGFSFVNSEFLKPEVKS

cSRC = cSRC (Homo sapiens, UniProt P12931); assay: KinaseProfiler Assay
DAPK2 = DAPK2 (Homo sapiens, UniProt Q9UIK4); assay: KinaseProfiler Assay
CK1γ1 = CK1γ1 (Homo sapiens, UniProt Q9HCP0); assay: KinaseProfiler Assay
CK1γ1, sequence (Q9HCP0 whole entry): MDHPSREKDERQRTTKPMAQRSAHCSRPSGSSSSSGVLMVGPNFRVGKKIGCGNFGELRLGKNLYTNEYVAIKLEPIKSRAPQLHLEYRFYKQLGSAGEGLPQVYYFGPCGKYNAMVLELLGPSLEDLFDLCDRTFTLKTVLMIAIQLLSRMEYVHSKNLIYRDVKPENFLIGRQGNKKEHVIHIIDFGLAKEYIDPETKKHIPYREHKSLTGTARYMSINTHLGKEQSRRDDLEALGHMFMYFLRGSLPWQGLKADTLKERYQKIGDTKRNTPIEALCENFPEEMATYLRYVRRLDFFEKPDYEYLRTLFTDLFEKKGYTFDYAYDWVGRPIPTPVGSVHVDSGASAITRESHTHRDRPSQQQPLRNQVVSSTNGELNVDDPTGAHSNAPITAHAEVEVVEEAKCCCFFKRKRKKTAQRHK

ErbB4 = ErbB4 (Homo sapiens, UniProt Q15303); assay: KinaseProfiler Assay
ErbB4, sequence (Q15303 26-1308): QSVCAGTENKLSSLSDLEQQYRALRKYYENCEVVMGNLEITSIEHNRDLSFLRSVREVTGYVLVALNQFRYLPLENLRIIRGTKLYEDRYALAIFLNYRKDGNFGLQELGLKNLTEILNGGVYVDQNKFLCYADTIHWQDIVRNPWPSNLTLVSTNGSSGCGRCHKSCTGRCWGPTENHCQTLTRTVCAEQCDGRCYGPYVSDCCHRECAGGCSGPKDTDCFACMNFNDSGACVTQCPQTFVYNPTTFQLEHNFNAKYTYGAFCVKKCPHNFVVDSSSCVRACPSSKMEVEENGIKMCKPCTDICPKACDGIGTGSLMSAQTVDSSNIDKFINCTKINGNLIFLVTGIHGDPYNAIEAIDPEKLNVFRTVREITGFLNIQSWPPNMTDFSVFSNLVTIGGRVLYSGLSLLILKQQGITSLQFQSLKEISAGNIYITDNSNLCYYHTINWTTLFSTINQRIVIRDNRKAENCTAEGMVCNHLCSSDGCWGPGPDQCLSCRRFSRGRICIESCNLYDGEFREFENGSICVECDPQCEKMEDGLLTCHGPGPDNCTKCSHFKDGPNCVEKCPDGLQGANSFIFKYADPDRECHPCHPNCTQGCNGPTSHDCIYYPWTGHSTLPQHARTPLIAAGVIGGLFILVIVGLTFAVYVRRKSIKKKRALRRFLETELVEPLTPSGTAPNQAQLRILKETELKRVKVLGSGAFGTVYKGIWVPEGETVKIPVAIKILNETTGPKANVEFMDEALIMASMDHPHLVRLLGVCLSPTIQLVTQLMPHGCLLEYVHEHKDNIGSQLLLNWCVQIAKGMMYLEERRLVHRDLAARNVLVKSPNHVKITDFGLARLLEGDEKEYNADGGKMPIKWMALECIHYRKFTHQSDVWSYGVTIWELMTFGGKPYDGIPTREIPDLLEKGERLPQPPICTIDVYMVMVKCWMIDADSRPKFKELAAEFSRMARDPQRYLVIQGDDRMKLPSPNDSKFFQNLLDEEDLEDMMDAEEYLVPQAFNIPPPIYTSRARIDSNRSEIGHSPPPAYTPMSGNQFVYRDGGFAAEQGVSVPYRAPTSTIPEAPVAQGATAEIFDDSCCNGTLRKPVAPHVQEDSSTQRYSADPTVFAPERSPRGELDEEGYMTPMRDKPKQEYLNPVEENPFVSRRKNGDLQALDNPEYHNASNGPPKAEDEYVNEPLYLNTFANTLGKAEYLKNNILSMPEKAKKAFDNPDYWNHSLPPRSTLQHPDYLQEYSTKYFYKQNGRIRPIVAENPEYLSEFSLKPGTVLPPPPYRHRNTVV

PAK5 = PAK5 (Homo sapiens, UniProt Q9P286); assay: KinaseProfiler Assay
Rsk1 = assay: KinaseProfiler Assay

p70S6K, sequence (P23443 whole entry): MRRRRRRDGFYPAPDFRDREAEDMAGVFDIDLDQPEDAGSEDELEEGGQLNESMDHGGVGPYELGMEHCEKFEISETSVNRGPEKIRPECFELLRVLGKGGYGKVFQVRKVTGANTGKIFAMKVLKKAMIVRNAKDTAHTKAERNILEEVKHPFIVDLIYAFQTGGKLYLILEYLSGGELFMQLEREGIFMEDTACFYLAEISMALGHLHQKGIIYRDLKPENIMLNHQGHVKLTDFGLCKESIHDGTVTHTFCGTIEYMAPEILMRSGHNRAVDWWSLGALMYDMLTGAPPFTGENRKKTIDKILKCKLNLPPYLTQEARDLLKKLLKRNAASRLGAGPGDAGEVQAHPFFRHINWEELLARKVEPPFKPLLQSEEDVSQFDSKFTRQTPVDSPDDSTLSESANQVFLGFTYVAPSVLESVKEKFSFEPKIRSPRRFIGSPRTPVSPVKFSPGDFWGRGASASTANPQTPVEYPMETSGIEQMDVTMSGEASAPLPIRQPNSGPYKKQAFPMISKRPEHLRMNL
Pim-2, sequence (Q9P1W9 whole entry): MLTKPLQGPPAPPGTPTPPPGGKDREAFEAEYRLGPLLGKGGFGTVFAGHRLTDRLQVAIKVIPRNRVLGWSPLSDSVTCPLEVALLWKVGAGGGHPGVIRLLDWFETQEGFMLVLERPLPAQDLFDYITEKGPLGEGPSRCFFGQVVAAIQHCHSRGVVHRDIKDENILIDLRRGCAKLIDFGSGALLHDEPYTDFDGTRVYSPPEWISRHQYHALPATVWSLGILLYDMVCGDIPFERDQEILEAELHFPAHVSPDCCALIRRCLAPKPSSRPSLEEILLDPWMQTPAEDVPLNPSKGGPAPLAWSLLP
TrkA, sequence (P04629 33-796): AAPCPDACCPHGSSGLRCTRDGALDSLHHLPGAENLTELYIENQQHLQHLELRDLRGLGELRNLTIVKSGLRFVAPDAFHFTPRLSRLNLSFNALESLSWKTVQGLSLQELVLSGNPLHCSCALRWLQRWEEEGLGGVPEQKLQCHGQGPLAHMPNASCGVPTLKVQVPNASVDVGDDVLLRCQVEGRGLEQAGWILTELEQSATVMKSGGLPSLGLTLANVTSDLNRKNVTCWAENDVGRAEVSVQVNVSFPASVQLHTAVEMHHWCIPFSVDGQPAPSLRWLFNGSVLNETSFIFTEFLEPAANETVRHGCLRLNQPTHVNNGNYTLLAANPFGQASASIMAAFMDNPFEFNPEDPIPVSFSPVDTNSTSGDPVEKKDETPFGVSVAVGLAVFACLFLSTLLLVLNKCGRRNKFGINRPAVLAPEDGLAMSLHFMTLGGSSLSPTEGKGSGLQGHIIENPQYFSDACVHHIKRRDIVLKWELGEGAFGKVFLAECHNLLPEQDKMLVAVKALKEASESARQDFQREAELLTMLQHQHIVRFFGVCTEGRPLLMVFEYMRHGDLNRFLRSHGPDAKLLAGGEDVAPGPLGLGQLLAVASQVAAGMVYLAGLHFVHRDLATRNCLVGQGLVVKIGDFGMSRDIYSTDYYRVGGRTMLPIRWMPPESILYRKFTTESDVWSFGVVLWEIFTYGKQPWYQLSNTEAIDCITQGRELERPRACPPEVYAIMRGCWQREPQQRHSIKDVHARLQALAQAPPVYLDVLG
MAPK1, sequence (P27361 whole entry): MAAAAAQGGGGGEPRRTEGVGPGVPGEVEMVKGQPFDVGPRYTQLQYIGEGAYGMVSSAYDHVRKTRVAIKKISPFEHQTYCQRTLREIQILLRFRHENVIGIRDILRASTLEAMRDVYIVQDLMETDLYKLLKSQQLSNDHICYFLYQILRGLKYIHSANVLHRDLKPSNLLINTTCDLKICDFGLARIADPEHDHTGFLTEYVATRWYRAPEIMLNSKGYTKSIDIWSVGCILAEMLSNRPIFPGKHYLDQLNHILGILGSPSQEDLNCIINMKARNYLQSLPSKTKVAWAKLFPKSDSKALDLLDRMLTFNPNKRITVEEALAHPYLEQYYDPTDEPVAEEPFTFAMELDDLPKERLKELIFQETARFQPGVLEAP

COc1cc(O)c(CC=C(C)C)c(O)c1C(=O)/C=C/c1ccc(O)cc1 [Xanthohumol, xanthohumol]
Kinase activity, % of Control (p70S6K; 1 ug/ml): 94 % of Control | Kinase activity, % of Control (p70S6K; 5 ug/ml): 48 % of Control | Kinase activity, % of Control (p70S6K; 25 ug/ml): 19 % of Control | Kinase activity, % of Control (p70S6K; 50 ug/ml): 7 % of Control | Kinase activity, % of Control (MAPK1; 5 ug/ml): 64 % of Control | Kinase activity, % of Control (MAPK1; 25 ug/ml): 19 % of Control | Kinase activity, % of Control (MAPK1; 50 ug/ml): 17 % of Control | Kinase activity, % of Control (Pim-2; 1 ug/ml): 104 % of Control | Kinase activity, % of Control (Pim-2; 5 ug/ml): 48 % of Control | Kinase activity, % of Control (Pim-2; 25 ug/ml): 14 % of Control | Kinase activity, % of Control (Pim-2; 50 ug/ml): 6 % of Control | Kinase activity, % of Control (TrkA; 1 ug/ml): 36 % of Control | Kinase activity, % of Control (TrkA; 5 ug/ml): 19 % of Control | Kinase activity, % of Control (TrkA; 25 ug/ml): 8 % of Control | Kinase activity, % of Control (TrkA; 50 ug/ml): 3 % of Control | adipogenic / lipogenic response (3T3-L1 adipocytes): comparable to indomethacin and troglitazone | Kinase activity, % of Control (PKCα; 1 ug/ml): 100 % of Control | Kinase activity, % of Control (PKCα; 5 ug/ml): 100 % of Control | Kinase activity, % of Control (PKCα; 50 ug/ml): 83 % of Control | Kinase activity, % of Control (cKit(D816H); 1 ug/ml): 94 % of Control | Kinase activity, % of Control (cKit(D816H); 5 ug/ml): 45 % of Control | Kinase activity, % of Control (cKit(D816H); 25 ug/ml): 14 % of Control | Kinase activity, % of Control (HIPK2; 1 ug/ml): 110 % of Control | Kinase activity, % of Control (HIPK2; 5 ug/ml): 98 % of Control | Kinase activity, % of Control (CDK5/p25; 25 ug/ml): 24 % of Control | Kinase activity, % of Control (CDK5/p25; 50 ug/ml): 87 % of Control | Kinase activity, % of Control (GSK3β; 1 ug/ml): 120 % of Control | Kinase activity, % of Control (GSK3β; 5 ug/ml): 99 % of Control | Kinase activity, % of Control (GSK3β; 25 ug/ml): 25 % of Control | Kinase activity, % of Control (GSK3β; 50 ug/ml): 3 % of Control | Kinase activity, % of Control (MSSK1; 1 ug/ml): 47 % of Control | Kinase activity, % of Control (MSSK1; 5 ug/ml): 11 % of Control | Kinase activity, % of Control (MSSK1; 25 ug/ml): 7 % of Control | Kinase activity, % of Control (MSSK1; 50 ug/ml): 5 % of Control | Kinase activity, % of Control (PKCβII; 1 ug/ml): 108 % of Control | Kinase activity, % of Control (PKCβII; 5 ug/ml): 108 % of Control | Kinase activity, % of Control (PKCβII; 25 ug/ml): 71 % of Control | Kinase activity, % of Control (PKCβII; 50 ug/ml): 79 % of Control | Kinase activity, % of Control (cSRC; 1 ug/ml): 92 % of Control | Kinase activity, % of Control (cSRC; 5 ug/ml): 50 % of Control | Kinase activity, % of Control (cSRC; 25 ug/ml): 27 % of Control | Kinase activity, % of Control (cSRC; 50 ug/ml): 21 % of Control | Kinase activity, % of Control (DAPK2; 1 ug/ml): 105 % of Control | Kinase activity, % of Control (DAPK2; 5 ug/ml): 88 % of Control | Kinase activity, % of Control (DAPK2; 25 ug/ml): 45 % of Control | Kinase activity, % of Control (DAPK2; 50 ug/ml): 26 % of Control | Kinase activity, % of Control (CK1γ1; 1 ug/ml): 101 % of Control | Kinase activity, % of Control (CK1γ1; 5 ug/ml): 79 % of Control | Kinase activity, % of Control (CK1γ1; 25 ug/ml): 50 % of Control | Kinase activity, % of Control (CK1γ1; 50 ug/ml): 26 % of Control | Kinase activity, % of Control (ErbB4; 1 ug/ml): 132 % of Control | Kinase activity, % of Control (ErbB4; 5 ug/ml): 85 % of Control | Kinase activity, % of Control (ErbB4; 25 ug/ml): 52 % of Control | Kinase activity, % of Control (ErbB4; 50 ug/ml): 27 % of Control | Kinase activity, % of Control (PAK5; 1 ug/ml): 106 % of Control | Kinase activity, % of Control (PAK5; 5 ug/ml): 99 % of Control | Kinase activity, % of Control (PAK5; 25 ug/ml): 42 % of Control | Kinase activity, % of Control (PAK5; 50 ug/ml): 5 % of Control | Kinase activity, % of Control (Rsk1; 1 ug/ml): 34 % of Control | Kinase activity, % of Control (Rsk1; 5 ug/ml): 49 % of Control | Kinase activity, % of Control (Rsk1; 25 ug/ml): 4 % of Control | Kinase activity, % of Control (Rsk1; 50 ug/ml): 0 % of Control
